This is an account of results in patent US8470850B2, “Inhibitors of VEGF receptor and HGF receptor signalling” (MethylGene Inc., priority 2004, dated 2013).

Test [1] concerns the target recombinant human c-Met/HGF receptor (Homo sapiens, UniProt P08581). The experiment in a line: In vitro receptor tyrosine kinase assay (DELFIA), c-Met/HGF receptor. To be noted: read-out: C-Met (enz.) (IC50); ATP 10 uM; enzyme 25 nM.
From the text: These tests measure the ability of compounds to inhibit the enzymatic activity of recombinant human c-Met/HGF receptor and VEGF receptor enzymatic activity.
This construct was used to generate recombinant baculovirus using the Bac-N-Blue™ system according to the manucfacturer's instructions (Invitrogen)
The c-Met IC protein was expressed in Hi-5 cells (Trichoplusia Ni) upon infection with recombinant baculovirus construct. Briefly, Hi-5 cells grown in suspension and maintained in serum-free medium (Sf900 II supplemented with gentamycin) at a cell density of about 2×10^6 cells/ml were infected with the abovementioned viruses at a multiplicity of infection (MOI) of 0.2 during 72 hours at 27° C. with agitation at 120 rpm on a rotary shaker. […] Cell pellets were frozen at −80° C. until purification was performed.
All steps described in cell extraction and purification were performed at 4° C. Frozen Hi-5 cell pellets infected with the C-Met IC recombinant baculovirus were thawed and gently resuspended in Buffer A (20 mM Tris pH 8.0, 10% glycerol, 1 μg/ml pepstatin, 2 μg/ml Aprotinin and leupeptin, 50 μg/ml PMSF, 50 μg/ml TLCK and 10 μM E64, 0.5 mM DTT and 1 mM Levamisole) using 3 mL of buffer per gram of cells. The suspension was Dounce homogenized after which it was centrifuged at 22500 g, 30 min., 4° C. The supernatant (cell extract) was used as starting material for purification of c-Met IC.
The supernatant was loaded onto a QsepharoseFF column (Amersham Biosciences) equilibrated with Buffer B (20 mM Tris pH 8.0, 10% glycerol) supplemented with 0.05M NaCl. […]
Inhibition of c-Met/HGF receptor and VEGFR/KDR was measured in a DELFIA™ assay (Perkin Elmer). […] Phosphorylated product was detected by incubation with Europium-labeled anti-phosphotyrosine MoAb. After washing the plates, bound MoAb was detected by time-resolved fluorescence in a Gemini SpectraMax reader (Molecular Devices).
For test [2], the target named is TPR-MET fusion protein (MNNGHOS cell line) (Homo sapiens, UniProt P08581). As to the kind of experiment: C-Met phosphorylation cell-based assay. To be noted: read-out: C-Met cell-based Y1230-34-35 tpr-met inhibition (IC50); MNNGHOS cells; compounds 3 hours prior to cell lysis.
Method: This test measures the ability of compounds to inhibit HGF stimulated auto-phosphorylation of the c-Met/HGF receptor itself in a whole cell system.
MNNGHOS cell line expressing TPR-MET fusion protein were purchased from ATCC.
Inhibitor of c-Met formulated as 30 mM stocks in DMSO. For MNNGHOS treatments, cells, compounds were added to tissue culture media at indicated doses for 3 hours prior to cell lysis.
Lysate were separated on 5-20% PAGE-SDS and immunoblots were performed using Immobilon P polyvinylidene difluoride membranes (Amersham) according to the manufacturer's instructions for handling. The blots were washed in Tris-buffered saline with 0.1% Tween 20 detergent (TBST). […] Signal was quantitated by densitometry on Alpha-Imager.
In another test the target is T1, VEGF receptor KDR (Homo sapiens, UniProt P35968).
T1 construct: made in house; host or cells: Sf9 cells (Spodoptera frugiperda), recombinant baculovirus
As to the kind of experiment: In vitro receptor tyrosine kinase assay (DELFIA), VEGF receptor KDR. The class given is biochemical. The following applies: ATP 0.6 uM; enzyme 5 nM; read-out: VEGF (enz.) (IC50). From the text:
In the case of VEGF receptor KDR a 1.6-kb cDNA corresponding to the catalytic domain of VEGFR2 or KDR (Genbank accession number AF035121 amino acid 806 to 1356) was cloned into the Pst I site of the pDEST20 gateway vector (Invitrogen) for the production of a GST-tagged version of that enzyme.
The GST-VEGFR2806-1356 protein was expressed in Sf9 cells (Spodoptera frugiperda) upon infection with recombinant baculovirus construct.
The supernatant was loaded onto a GST-agarose column (Sigma) equilibrated with PBS pH 7.3. Following a four column volume (CV) wash with PBS pH 7.3+1% Triton X-100 and 4 CV wash with buffer B (50 mM Tris pH 8.0, 20% glycerol and 100 mM NaCl), bound proteins were step eluted with 5 CV of buffer B supplemented with 5 mM DTT and 15 mM glutathion. […] Final GST-VEGFR2806-1356 protein preparations concentrations were about 0.7 mg/ml with purity approximating 70%.

In the next test the test system is U87MG. The experiment in a line: In vivo solid tumor disease model, U87MG xenograft. More on the design: species or system mice. The following applies: 15 mg/kg once daily, IP, vehicle DMSO, 10 days. From the text:
This test measures the capacity of compounds to inhibit solid tumor growth.
Tumor xenografts were established in the flank of female athymic CD1 mice (Charles River Inc.), by subcutaneous injection of 1×10^6U87, A431 or SKLMS cells/mouse. Once established, tumors were then serially passaged s.c. in nude mice hosts. Tumor fragments from these host animals were used in subsequent compound evaluation experiments. For compound evaluation experiments female nude mice weighing approximately 20 g were implanted s.c. by surgical implantation with tumor fragments of ˜30 mg from donor tumors. When the tumors were approximately 100 mm^3 in size (˜7-10 days following implantation), the animals were randomized a separated into treatment and control groups. Each group contained 6-8 tumor-bearing mice, each of which was ear-tagged and followed individually throughout the experiment
Mice were weighed and tumor measurements are taken by calipers three times weekly, starting on Day 1. These tumor measurements were converted to tumor volume by the well-known formula (L+W/4)^34/3π. The experiment was terminated when the control tumors reached a size of approximately 1500 mm^3. […] In addition to tumor volumes, body weight of animals were monitored twice weekly for up to 3 weeks.

Some results are limits rather than exact numbers.

recombinant human c-Met/HGF receptor, sequence (P08581 1078-1337): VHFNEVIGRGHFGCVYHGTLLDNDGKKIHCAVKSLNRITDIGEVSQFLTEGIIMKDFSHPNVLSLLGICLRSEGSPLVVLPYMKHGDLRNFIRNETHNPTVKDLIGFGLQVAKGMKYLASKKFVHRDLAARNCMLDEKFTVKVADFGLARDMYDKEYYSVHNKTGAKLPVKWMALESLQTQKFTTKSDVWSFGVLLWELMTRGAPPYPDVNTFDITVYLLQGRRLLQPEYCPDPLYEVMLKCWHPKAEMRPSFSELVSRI
T1 sequence (P35968 806-1356): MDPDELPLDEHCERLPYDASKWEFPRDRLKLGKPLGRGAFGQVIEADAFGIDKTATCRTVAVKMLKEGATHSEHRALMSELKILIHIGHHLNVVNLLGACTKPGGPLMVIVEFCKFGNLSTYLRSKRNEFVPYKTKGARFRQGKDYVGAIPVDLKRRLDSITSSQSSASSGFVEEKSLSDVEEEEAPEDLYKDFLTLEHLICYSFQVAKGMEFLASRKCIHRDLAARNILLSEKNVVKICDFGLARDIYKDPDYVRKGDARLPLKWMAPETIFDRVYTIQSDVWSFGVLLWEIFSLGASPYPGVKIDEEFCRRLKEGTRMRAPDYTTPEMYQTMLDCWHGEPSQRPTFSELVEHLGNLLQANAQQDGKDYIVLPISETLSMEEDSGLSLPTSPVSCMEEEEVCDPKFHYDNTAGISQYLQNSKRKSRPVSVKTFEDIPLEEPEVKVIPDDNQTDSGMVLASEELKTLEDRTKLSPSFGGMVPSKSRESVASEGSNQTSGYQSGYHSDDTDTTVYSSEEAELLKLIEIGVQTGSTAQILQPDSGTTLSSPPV
TPR-MET fusion protein (MNNGHOS cell line), sequence (P08581 with tags, fused parts or gaps): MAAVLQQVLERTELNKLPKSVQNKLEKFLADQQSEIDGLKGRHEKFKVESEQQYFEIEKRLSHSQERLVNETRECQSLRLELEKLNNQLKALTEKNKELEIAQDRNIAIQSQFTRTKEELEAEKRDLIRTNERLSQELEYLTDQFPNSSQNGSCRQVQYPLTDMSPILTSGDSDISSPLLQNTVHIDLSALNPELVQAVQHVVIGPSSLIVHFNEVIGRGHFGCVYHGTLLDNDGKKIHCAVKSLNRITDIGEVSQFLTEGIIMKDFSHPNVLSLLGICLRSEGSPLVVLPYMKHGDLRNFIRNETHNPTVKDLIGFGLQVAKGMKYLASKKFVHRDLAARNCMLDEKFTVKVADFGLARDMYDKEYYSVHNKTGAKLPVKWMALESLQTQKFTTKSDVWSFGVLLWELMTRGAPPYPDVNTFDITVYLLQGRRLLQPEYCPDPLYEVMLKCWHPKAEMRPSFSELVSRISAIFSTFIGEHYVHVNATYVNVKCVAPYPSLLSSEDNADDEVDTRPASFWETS

Broadly, the IC50 is the concentration at which inhibition is half-maximal. For the molecule `O=C(Cc1ccccc1)NC(=S)Nc1ccc(Oc2ccnc3cc(C(=O)N4CCOCC4)sc23)c(F)c1` [Example 3], the figures for the IC50 (in test [1]; in test [2]; on VEGF receptor KDR) were 50 to 250 nM, 50 to 250 nM and 250 to 500 nM, respectively.

Regarding `CN1CCN(C(=O)c2cc3ncnc(Oc4ccc(NC(=S)NC(=O)Cc5ccccc5)cc4F)c3s2)CC1` [Example 24, 1-(4-(6-(4-N-Methylpiperazylcarbamoyl)thieno[3,2-d]pyrimidin-4-yloxy)-3-fluorophenyl)-3-(2-phenylacetyl)thiourea], the IC50 was 50 to 250 nM in test [1], more than 500 nM in test [2] and 250 to 500 nM at VEGF receptor KDR.

On to `Cn1cnnc1-c1cc2nccc(Oc3ccc(NC(=S)NC(=O)Cc4ccccc4)cc3F)c2s1` [Example 75, N-(3-Fluoro-4-(2-(4-methyl-4H-1,2,4-triazol-3-yl)thieno[3,2-b]pyridin-7-yloxy)phenylcarbamothioyl)-2-phenylacetamide], for which, in the test with U87MG, the “Tumor Growth Inhibition (%)” value is “d (% TGI in the range of 0-24)”.

For the molecule “Methyl 2-(1-(4-(2-(carbamoyl)thieno[3,2-b]pyridin-7-yloxy)-3-fluorophenyl)-3-(2-phenylacetyl)thioureido)propanoate [Example 11]”, the IC50 in test [1] was 50 to 250 nM; in test [2], 50 to 250 nM; at VEGF receptor KDR, more than 500 nM.
